In patent US9809589B2, “Crystal form of compound used as mineralocorticoid receptor antagonist and preparation method therefor” (KBP BIOSCIENCES CO., LTD., priority 2012, dated 2017):
Entries after “also recorded” stand apart in the source; their conditions may differ.

What was measured:
[1] = Assay 1: stability (influencing factor tests) for Crystal Form I; HPLC content; assay type: physicochemical
Method: Assay 1: Stability for Crystal Form I of the Present Compound
Crystal Form I of the compound represented by formula (1): Crystal Form I was prepared according to Example 2.
(1) Crystal Form I of the compound represented by formula (1) was laid on a dry and clean watch glass, and kept at 60° C. for 10 days. Samples were taken respectively on Day 5 and Day 10. The contents of the relevant substance and the compound represented by formula (1) in the sample were measured, and compared with the contents of those in the sample taken on Day 0;
(2) Crystal Form I of the compound represented by formula (1) was packaged and sealed with a low-density polyethylene bag for pharmaceutical use in the inner layer and with a polyester/aluminum/polyethylene composite film for pharmaceutical package in the outer layer, and kept at 60° C. for 10 days. Samples were taken respectively on Day 5 and Day 10. The contents of the relevant substance and the compound represented by formula (1) in the sample were measured, and compared with the contents of those in the sample taken on Day 0.
High humidity test: Crystal Form I of the compound represented by formula (1) was laid on a dry and clean watch glass, and kept at 25° C. under a relative humidity of 90%±5% for 10 days. Samples were taken respectively on Day 5 and Day 10. The contents of the relevant substance and the compound represented by formula (1) in the sample were measured, and compared with the contents of those in the sample taken on Day 0.
Photostability test: Crystal Form I of the compound represented by formula (1) was laid on a dry and clean watch glass, and kept at an illuminance of 4500 L×±500 L× in an illumination box for 10 days. Samples were taken respectively on Day 5 and Day 10. The contents of the relevant substance and the compound represented by formula (1) in the sample were measured, and compared with the contents of those in the sample taken on Day 0.
The content of the compound represented by formula (1) was measured by using an external standard method in accordance with the High Performance Liquid Chromatography in Chinese Pharmacopoeia, Appendix V D, Edition 2010.
The content of the relevant substance was measured by using an area normalization method in accordance with the High Performance Liquid Chromatography in Chinese Pharmacopoeia, Appendix V D, Edition 2010.

[2] = system: high salt induced Dahl salt sensitive (Dahl/SS) rats; test: Assay 3: depressurization effect (SBP, tail-cuff) in hypertension and kidney injury Dahl/ss rat model; assay type: in vivo; details: for SBP Before Administration (mean ± SD): baseline, solid dispersion with PVPK30 1:8, oral gavage twice a day; for SBP After Administration (on 41th day) (mean ± SD): oral gavage twice a day, 4% NaCl chow, solid dispersion with PVPK30 1:8
Method: (§1) Organ protection and depressurization effect of Crystal Form I of the present invention on the high salt induced Dahl salt sensitive (Dahl/SS) rats
(§2) The solid dispersion of Crystal Form I of the present invention (Crystal Form I of the present invention: PVPK30=1:8 (w/w)): the solid dispersion of Crystal Form I of the present invention was formulated with a suitable amount of sterile water for injection into suspensions having concentrations of 0.03, 0.10, 0.30, and 1.00 mg/mL. The suspension was prepared before use every day.
(§3) Experiment animals: male Dahl/ss rats of SPF (specific pathogen free)-grade, 8-9 weeks, purchased via Vital River Laboratories from HARLAN LABORATORIES, INC. After one week normal quarantine, rats in good sign and condition were used in the experiment.
(§4) Dahl/ss rats were randomly divided into six groups according to the blood pressure measurement before administration:
(§5) The in vivo pharmacodynamic activity of Crystal Form I of the present invention was evaluated by the hypertension and kidney injury Dahl/ss rat's model.
(§6) One week before the experiment, the blood pressures of rats were monitored twice by the tail-cuff blood pressure measurement so that the rats could accommodate the blood pressure monitoring operation. The blood pressures of rats were monitored once before starting the experiment and used as the basic blood pressures before administration. The rats were randomly divided into groups according to the measured blood pressures before administration. The model was established by feeding the rats with a high salt chow (AIN-93G experiment animal feed containing 4% NaCl) for 42 days, in which the rats were freely accessible to food and water. And rats in control group were fed with a low-sodium chow.
(§7) The rats in the treatment groups with Crystal Form I of the present invention were respectively administrated with Crystal Form I of the present invention in a dosage of 0.3, 1, 3, and 10 mg/kg/day. Rats in treatment groups were dosed orally via gavage twice a day by 5 mL/kg. The rats in the model group and in the normal control were administrated with the same volume of sterile water for injection.
Blood pressure (systolic blood pressure, abbreviated as SBP) measurement: The blood pressure was measured once each week for six weeks. The blood pressure changes were analyzed for each group.

[3] = system: high salt induced Dahl salt sensitive (Dahl/SS) rats; test: Assay 3: pathological examinations for kidney and heart (organ protection) in Dahl/ss rat model; assay type: in vivo; details: for left ventricular wall thickness (mean ± SD) / Kidney injury scores (Mean ± SD): 42 days high salt chow; for Kidney injury scores (Mean ± SD): HE stain
Method: as §1, §2, §3, §4, §5, §6, §7
The pathological examinations for kidney and heart: After the experiment, the rats were killed in a painless manner. The heart and the bilateral kidneys were collected for histopathology analysis. Kidney injury was scored and semi-quantitatively analyzed based on hematoxylin-eosin (HE) stain. The heart injury was analyzed by the measurement of left ventricular wall thickness.

[4] = 60° C.-(1), open watch glass, Day 5
[5] = 60° C.-(1), open watch glass, Day 10
[6] = 60° C.-(2), packaged and sealed, Day 5
[7] = 60° C.-(2), packaged and sealed, Day 10

N#Cc1ccc(N2N=C3c4ccc(C(=O)N5CCC(O)CC5)nc4CC[C@@H]3[C@@H]2C2CCCC2)cc1Cl [Crystal Form I, 2-chloro-4-[(3S,3aR)-3-cyclopentyl-7-(4-hydroxypiperidin-1-carbonyl)-3,3a,4,5-tetrahydro-2H-pyrazolo[3,4-f]quinolin-2-yl]benzonitrile]
Stability compared with the amorphous form [1]: superior to the amorphous form in the stability | Content of the compound represented by formula (1) [1, 4]: 98.9% | Content of the relevant substance [1, 4]: 0.82% | Content of the compound represented by formula (1) [1, 5]: 98.1% | Content of the relevant substance [1, 5]: 0.97% | Content of the compound represented by formula (1) [1, 6]: 99.7% | Content of the relevant substance [1, 6]: 0.58% | Content of the compound represented by formula (1) [1, 7]: 99.0% | Content of the relevant substance [1, 7]: 0.60% | Content of the compound represented by formula (1) ([1]; 4500 Lx ± 500 Lx, Day 5): 98.1% | Content of the relevant substance ([1]; 4500 Lx ± 500 Lx, Day 5): 1.2% | Content of the compound represented by formula (1) ([1]; 4500 Lx ± 500 Lx, Day 10): 97.0% | Content of the relevant substance ([1]; 4500 Lx ± 500 Lx, Day 10): 2.0% | Content of the compound represented by formula (1) ([1]; Day 0): 99.5% | Content of the relevant substance ([1]; Day 0): 0.54% | Content of the compound represented by formula (1) ([1]; RH90% ± 5%, 25° C., Day 5): 99.1% | Content of the relevant substance ([1]; RH90% ± 5%, 25° C., Day 5): 0.56% | Content of the compound represented by formula (1) ([1]; RH90% ± 5%, 25° C., Day 10): 99.0% | Content of the relevant substance ([1]; RH90% ± 5%, 25° C., Day 10): 0.56% | Change of contents of the relevant substance and the compound represented by formula (1) ([1]; high temperature, high humidity, illumination): substantially did not change | SBP Before Administration (mean ± SD) ([2]; 0.3 mg/kg/day group): 140.8 ± 9.6 mmHg | SBP After Administration (on 41th day) (mean ± SD) ([2]; 0.3 mg/kg/day): 166.5 ± 10.2 mmHg | SBP Before Administration (mean ± SD) ([2]; 1 mg/kg/day group): 140.9 ± 9.5 mmHg | SBP After Administration (on 41th day) (mean ± SD) ([2]; 1 mg/kg/day): 148.7 ± 9.6 mmHg | SBP Before Administration (mean ± SD) ([2]; 3 mg/kg/day group): 141.0 ± 9.4 mmHg | SBP After Administration (on 41th day) (mean ± SD) ([2]; 3 mg/kg/day): 141.6 ± 8.0 mmHg | SBP Before Administration (mean ± SD) ([2]; 10 mg/kg/day group): 141.2 ± 9.2 mmHg | SBP After Administration (on 41th day) (mean ± SD) ([2]; 10 mg/kg/day): 141.2 ± 9.6 mmHg | Depressurization effect ([2]; 0.3-10 mg/kg/day oral, high salt Dahl/ss rats, listed as Crystal Form I of the present invention): significant depressurization effect; also recorded: remarkable depressurization effect | left ventricular wall thickness (mean ± SD) ([3]; 0.3 mg/kg/day oral): 0.392 ± 0.024 cm | Kidney injury scores (Mean ± SD) ([3]; 0.3 mg/kg/day oral): 2.02 ± 0.268 | left ventricular wall thickness (mean ± SD) ([3]; 1 mg/kg/day oral): 0.383 ± 0.017 cm | Kidney injury scores (Mean ± SD) ([3]; 1 mg/kg/day oral): 1.25 ± 0.428 | left ventricular wall thickness (mean ± SD) ([3]; 3 mg/kg/day oral): 0.381 ± 0.026 cm | Kidney injury scores (Mean ± SD) ([3]; 3 mg/kg/day oral): 1.84 ± 0.596 | left ventricular wall thickness (mean ± SD) ([3]; 10 mg/kg/day oral): 0.383 ± 0.019 cm | Kidney injury scores (Mean ± SD) ([3]; 10 mg/kg/day oral): 1.71 ± 0.719 | Heart protection (left ventricular wall thickness) ([3]; compared with the model group): significantly decreased the left ventricular wall thickness | Kidney protection (kidney injury score) ([3]; treatment groups vs model group, listed as Crystal Form I of the present invention): remarkable prevention from the increase in the kidney injury score; also recorded: kidney injury protection
